Data set [1] can be described thus: Stress stability test (high temperature or high humidity). In kind it is physicochemical. On the procedure:
(§1) PEL and butylparaben (IS) were prepared and further diluted in a mixture of methanol and deionized water at a ratio of 4:1 (v/v) to provide a working PEL and IS solution of concentration 30 µg/mL. The PEL concentration was determined using an HPLC system (Model 1260; Agilent Technologies Inc., Santa Clara, CA, USA). Chromatographic separation was performed using a C18 column (4.6 × 150 mm, 5 µm, Waters, Milford, MA, USA) at a flow rate of 1.1 mL/min with the mobile phase consisting of methanol, water, and acetic acid at a ratio of 1200:800:1 (v/v). The sample was injected into the column, and the peaks were monitored using a UV detector at 274 nm.
Stability tests of PEL-T and PEL were performed under stress storage conditions. PEL-T and PEL were packed into high-density polyethylene (HDPE) bottles with caps and used as stability test samples. For stress stability, the samples were stored at a high temperature (80 ± 5 °C) or high humidity (relative humidity (RH) 90 ± 5%). The drug content and impurities were determined using the HPLC assay described above (Section 2.4) at the following time points: 0, 14, and 21 days (Tables S3 and S4).

A short description of data set [2]: Solubility at various pH values. Conditions: thermodynamic from solid, stirred 24 h, mean ± S.D. (n = 3). It counts as physicochemical. As for the experimental part:
as §1
The solubilities of PEL-T and PEL were compared and evaluated based on the pH changes. After dissolving 5 g of PEL-T and PEL each in 5 mL of water, a pH 1.2 solution, a pH 4.0 solution, and a pH 6.8 solution, respectively, the mixtures were stirred for 24 h, filtered using a 0.45 μm polyvinylidene difluoride (PVDF) syringe filter, and then were analyzed using an HPLC assay, as described above (Section 2.4).

Data set [3] concerns gastric mucosa. Kind of data set: Gastric mucosal injury test in rats. In kind it is in vivo, Sprague-Dawley (SD) rats. Conditions: single p.o. dose equivalent to PEL 300 mg/kg, 6 h after dosing, 48 h fasted male SD rats, n = 10. On the procedure: The gastric mucosal injury test was performed by KNOTUS Co., Ltd. (Guri, Korea) and approved by the Animal Ethics Committee (Protocol number: […]-354 approved 18 October 2018). Male Sprague-Dawley (SD) rats (7-weeks-old) from Orient bio Co., Ltd. […] The rats were randomly divided into three groups, each group consisting of 10 animals. […] The area of the lesions was analyzed using ImageJ software (National Institutes of Health, Bethesda, MD, USA).

On the set-up of data set [4]: method as in PMID 27492018, doi:10.2133/dmpk.10.637. The following applies: oral administration, cited from earlier work.
Data set [5] can be described thus: PK study in rats after oral administration. It counts as in vivo, Sprague-Dawley (SD) rats. Conditions: male, Sprague-Dawley, rat, PEL in plasma, single oral dose 9.3 mg/kg PEL equivalent, n = 10.
Experimental: Male Sprague-Dawley (SD) rats (8-weeks-old) from DBL Co., Ltd. (Eumseong, Korea) were maintained under constant laboratory conditions (temperature: 22 ± 3 °C, RH: 50 ± 20%, light/dark cycle: 12 h). The rats were divided into two groups, each composed of 10 rats. The animals were fasted overnight and were only allowed free access to water. […] Blood samples (500 μL) were collected directly from the jugular vein at predetermined time points (0, 0.083, 0.167, 0.25, 0.5, 0.75, 1, 2, 3, 4, and 8 h) using heparinized syringes. The collected blood samples were centrifuged immediately at 12,000 rpm for 5 min at 4 °C and the obtained plasma samples were stored at −70 °C until analysis.
The plasma concentration of PEL was determined using LC–MS/MS (Agilent 1260; Agilent Technologies Inc., Santa Clara, CA, USA). The chromatographic separation of PEL was performed using an ODS column (Poroshell 120 EC-C18, 2.1 × 30 mm, 2.7 µm, Agilent Technologies Inc., Santa Clara, CA, USA). The mobile phase (MP) consisted of 0.1% formic acid and acetonitrile with a gradient elution and the flow rate used was 0.4 mL/min. Mass spectrometric detection was done using an AB Sciex API 4000 triple quadrupole mass spectrometer (AB Sciex Instruments, Framingham, MA, USA). The electrospray ionization (ESI) source was set to positive ion mode. The mass-to-charge ratios (m/z) used were 259.0 → 195.2 for PEL and 255.1 → 208.9 for ketoprofen, which were used as the internal standards (IS). […] The assay method was validated for linearity, accuracy, and precision.
The PK parameters for PEL were calculated using the noncompartmental analysis and WinNonlin® 8.1 (Pharsight, CA, USA). The area under the plasma concentration–time curve from 0 h to the last time point (AUCt) was calculated for all samples using the linear trapezoidal method. The maximum plasma concentration and time to reach the maximum plasma concentration (Tmax) were directly obtained from the plasma concentration–time profiles.
Data set [6] concerns Caco-2 cells. Kind of data set: Permeability test in Caco-2 cell monolayers. It counts as in vitro ADME.
Experimental: (§2) Caco-2 monolayer experiments were performed as previously described with a few modifications [20]. The Caco-2 cells were obtained from the Korean Cell Line Bank (Seoul, Korea) and used in the transport experiments between passages 40 and 50. The cells were cultured at 37 °C with 5% CO2 and maintained in Dulbecco’s modified Eagle’s medium with 10% fetal bovine serum, 1% nonessential amino acids, 10,000 units/mL penicillin, and 10,000 μg/mL streptomycin. For the transport studies, cells were seeded on rat tail collagen-coated Transwell insert filters on 12-well plates at 3 × 10^5 cells/500 μL and were cultured for 21–29 days. For the first 7 days, the medium was replaced every 2–3 days, and daily thereafter. Monolayer integrity was checked before and after each experiment using a Millicell-ERS instrument to determine the transepithelial electrical resistance (TEER) across the monolayer and to ensure that there were no substantial changes in the monolayer integrity throughout the duration of the experiments.
(§3) Prior to transport experiments, the cell monolayers were washed twice using Hank’s balanced salt solution (HBSS), and the Caco-2 cell Transwell model was preincubated at 37 °C for 15 min. […] The sample was pretreated using a protein precipitation method and the concentrations of PEL in each sample were determined using an LC–MS/MS assay, as described below (Section 2.9). […] The sample was pretreated using a protein precipitation method and the concentration of PEL in each sample was determined using an LC–MS/MS assay. The steady state flux (Js) and permeability coefficient (Kp) were calculated according to Equations (1) and (2):Js [ng/(cm^2 × h)] = Qr/(A × t)(1) Kp (cm/h) = Js/Cd(2) where Qr is the total permeation amount of PEL in the basolateral (for the absorptive transport) or apical (for the secretory transport) side (ng), A is the surface area of the insert (1.12 cm^2), t is the permeation time (h), and Cd is the initial drug concentration in the apical (for the absorptive transport) or basolateral (for the secretory transport) side (ng/cm^3). […]
Data set [7] is described as follows: Permeability test in Caco-2 cell monolayers. In kind it is in vitro ADME. Conditions: human, Caco-2; Kp [B to A]/Kp [A to B].
Experimental: as §2, §3
Details of data set [8]: method as in PMID 27492018, doi:10.2133/dmpk.10.637. The following applies: oral administration, rats; cited from earlier work.

In brackets after ≈: the same amount, converted by molar mass. Read-outs that look alike come from different tables or passages of the source.

`CC(C(=O)O)c1ccc(C=C2CCCCC2=O)cc1` (stereo not drawn) [PEL, 2-[4-(2-oxocyclohexylidenemethyl)phenyl] propionic acid]: the “Changes in the drug contents in the stress stability test” value in data set [1] (80 ± 5 °C or RH 90 ± 5%, entire period (21 days)) is “No significant changes”. The Contents in data set [1] (80 ± 5 °C, 0 days) is 98.6 ± 0.8%; in data set [1] (80 ± 5 °C, 14 days), 98.2 ± 0.6%; in data set [1] (80 ± 5 °C, 21 days), 97.1 ± 0.9%; in data set [1] (RH 90 ± 5%, 0 days) it was 98.6 ± 0.8%; in data set [1] (RH 90 ± 5%, 14 days), 98.9 ± 0.4%; in data set [1] (RH 90 ± 5%, 21 days), 98.5 ± 0.4%. In addition, the solubility at 24 h in data set [2] (aqueous buffer, pH 4.0 solution) was 70 ± 40 µg/mL (≈ 271 µM); in data set [2] (aqueous buffer, pH 6.8 solution) it was 4050 ± 140 µg/mL (≈ 15700 µM); in data set [2] (simulated gastric fluid, pH 1.2 solution), 30 ± 10 µg/mL (≈ 116 µM); in data set [2] (water), 130 ± 30 µg/mL (≈ 503 µM). In data set [3], the “Damage area (mucosal hemorrhagic lesions)” value was 4.01%. The “Time to reach the maximum plasma concentration (Cmax)” value in data set [4] (female beagle dogs) is 2 h; in data set [4] (male beagle dogs), 1 h; in data set [8] it was 30 min. The AUC(0-t) in data set [5] was determined as 19.2 ± 7.01 ng·h/mL. In addition, the Cmax in data set [5] turned out to be 46.3 ± 29.2 ng/mL. In data set [5] (plasma, po, 9.3 mg/kg), the Tmax is 23.4 ± 11.4 min. The “Efflux ratio, times higher than that of PEL-T” value in data set [6] is 1.6 times. Further, the “Kp B to A, times higher than that of PEL-T” value in data set [6] (secretory direction, not statistically significant) was 1.3 times. Also, the efflux ratio at 120 min, 50 μM in data set [7] amounted to 1.24.
